The values that follow come from article PMC8901636, “Preclinical studies of Flonoltinib Maleate, a novel JAK2/FLT3 inhibitor, in treatment of JAK2^V617F-induced myeloproliferative neoplasms” (Blood Cancer Journal, 2022).

One series deals with Ba/F3-JAK2^WT. As to the kind of experiment: MTT assay for cell proliferation. Type of series: cell-based, Murine. Particulars: Mus musculus; Ba/F3-JAK2^WT; IL-3-dependent growth; MTT 72 h; read-out: IC50(μM) ± SD, tumor cell proliferation. A general note: Tetrazolium dyes change colour on reduction, which living cells bring about.
In another series the test system is Ba/F3-EPOR. The series can be described thus: MTT assay for cell proliferation. Type of series: cell-based, Murine. Conditions: Mus musculus; Ba/F3-EPOR; IL-3-dependent growth; MTT 72 h; read-out: IC50(μM) ± SD, tumor cell proliferation.
A further series deals with HEL. The series can be described thus: MTT assay for cell proliferation. Type of series: cell-based. Conditions: Homo sapiens, JAK2V617F, MTT 72 h, read-out: IC50(μM) ± SD, tumor cell proliferation.
The next series has as its system Ba/F3-JAK2^V617F. The series can be described thus: MTT assay for cell proliferation. Type of series: cell-based, Murine. Conditions: Mus musculus; Ba/F3-JAK2^V617F; MTT 72 h; read-out: IC50(μM) ± SD, tumor cell proliferation.
In another series the test system is Ba/F3-EPOR-JAK2^V617F. The series can be described thus: MTT assay for cell proliferation. Type of series: cell-based, Murine. Particulars: Mus musculus; Ba/F3-EPOR-JAK2^V617F; MTT 72 h; read-out: IC50(μM) ± SD, tumor cell proliferation.
In a further series the test system is MV-4-11. As to the kind of experiment: MTT assay for cell proliferation. Type of series: cell-based. Conditions: Homo sapiens, MV4-11; MV-4-11; FLT3-ITD expression; MTT 72 h; read-out: IC50(μM) ± SD, tumor cell proliferation.
Another series concerns Molm-13. The series can be described thus: MTT assay for cell proliferation. In kind it is cell-based. Conditions: Homo sapiens; Molm-13; FLT3-ITD expression; MTT 72 h; read-out: IC50(μM) ± SD, tumor cell proliferation.
A further series concerns Ba/F3-FLT3-ITD. The series can be described thus: MTT assay for cell proliferation. Particulars: Mus musculus; Ba/F3-FLT3-ITD; MTT 72 h; read-out: IC50(μM) ± SD, tumor cell proliferation. Type of series: cell-based, Murine.
A further series concerns Ba/F3-FLT3-ITD^F691. The series can be described thus: MTT assay for cell proliferation. In kind it is cell-based, Murine. Particulars: Mus musculus; Ba/F3-FLT3-ITD^F691; MTT 72 h; read-out: IC50(μM) ± SD, tumor cell proliferation.
The next series concerns Ba/F3-FLT3-ITD^D835V. The series can be described thus: MTT assay for cell proliferation. Type of series: cell-based, Murine. Particulars: Mus musculus; Ba/F3-FLT3-ITD^D835V; MTT 72 h; read-out: IC50(μM) ± SD, tumor cell proliferation.
A further series relates to JAK2^V617F. The series can be described thus: JAK2^V617F bone marrow transplantation (BMT) myelofibrosis model. In kind it is in vivo, BALB/c mice. Conditions: 30 mg/kg bid p.o.
Series [1] is described as follows: Bioavailability. Conditions: rat, in vivo; rats; data not shown.
The nature of series [2]: Bioavailability. Particulars: dog, in vivo; dogs; data not shown.
Another series has as its system Ba/F3-JAK2^V617F cells. The series can be described thus: Ba/F3-JAK2^V617F disease model.
Series [3] relates to Ba/F3-EPOR-JAK2^V617F cells. As to the kind of experiment: Ba/F3-EPOR-JAK2^V617F malignancy mouse model. Conditions: 30 mg/kg bid p.o.

Description for Ba/F3-FLT3-ITD^D835V: (§1) For in vitro inhibition assays, cells were seeded in 96-well culture plates with a density of 15,000–20,000 cells/well after the cells reached 70–90% confluence. […] MTT (3-(4, 5-dimethylthiazol-2-yl)-2, 5-diphenyltetrazolium bromide) (Cat. No. 1334GR001; BioFroxx) assay was conducted in order to examine viability. The IC50 values were fitted using GraphPad Prism 7.0.
Description for Ba/F3-FLT3-ITD^F691: as §1
Description for Ba/F3-JAK2^WT: as §1
Description for HEL: as §1
Description for MV-4-11: as §1
Description for Molm-13: as §1

`Cc1cnc(Nc2ccc(OCCN3CCCC3)cc2)nc1Nc1cccc(S(=O)(=O)NC(C)(C)C)c1` [Fedratinib, reference compound]: the IC50 in the series with Ba/F3-JAK2^WT was 0.68 ± 0.12 µM; in the series on Ba/F3-EPOR, 0.97 ± 0.23 µM; in the series on HEL, 0.77 ± 0.36 µM; with Ba/F3-JAK2^V617F it was 0.61 ± 0.13 µM; with Ba/F3-EPOR-JAK2^V617F it was 1.71 ± 0.04 µM; with MV-4-11 it was 0.26 ± 0.11 µM. Moreover, the IC50 was 0.17 ± 0.01 µM in the series on Molm-13, 0.21 ± 0.05 µM in the series with Ba/F3-FLT3-ITD, 0.74 ± 0.15 µM with Ba/F3-FLT3-ITD^F691 and 0.37 ± 0.04 µM with Ba/F3-FLT3-ITD^D835V. Also, in the series with JAK2^V617F (figure prints it with a minus sign over Spleen Wight (mg)), the inhibition of splenomegaly was 90.56%. The median survival time in the series on JAK2^V617F (vehicle 133.5 days) is given as greater than 180 days; in [3] (vehicle 19 days), 22 days. In addition, the bioavailability – broadly, dose-corrected exposure relative to a reference, in per cent – in “Bioavailability [1]” came out at 19%; in “Bioavailability [2]”, 37%. Moreover, the “inhibition of the spleen growth” value in the series with Ba/F3-JAK2^V617F cells (30 mg/kg bid p.o., 22 days, figure prints it with a minus sign over Spleen Weight (mg)) is given as 67.44%. The median survival in the series on Ba/F3-JAK2^V617F cells (30 mg/kg bid p.o., vehicle 25 days) worked out at 28 days. Also, the “body weight during treatment” value in the series on Ba/F3-JAK2^V617F cells (any dose) is on record as “no obvious body weight decrease”. Further, the “spleen suppression rate” value in [3] (16 days) is given as -40.23%.
